# Results as given in PubChem BioAssay (NCI).
#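 A five-concentration, 48-hour dose response in 96-well plates underlies each endpoint, interpolated linearly between surrounding concentrations. Abbreviation: GI50, concentration required for 50% inhibition of growth. TGI denotes the concentration required for complete inhibition of growth.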
# What was measured:
# Assay in all cases: DTP human tumour cell line panel, 48 h
# ACHN renal = tested on: ACHN renal
# HT29 colon = tested on: HT29 colon
# SF-539 CNS = tested on: SF-539 CNS
# U251 CNS = tested on: U251 CNS
# HCT-15 colon = tested on: HCT-15 colon
# CAKI-1 renal = tested on: CAKI-1 renal
# OVCAR-5 ovarian = tested on: OVCAR-5 ovarian
# SF-268 CNS = tested on: SF-268 CNS
# LOX IMVI melanoma = tested on: LOX IMVI melanoma
# BT-549 breast = tested on: BT-549 breast
Structure (SMILES),GI50 (ACHN renal) [µM],TGI (ACHN renal) [µM],GI50 (HT29 colon) [µM],TGI (HT29 colon) [µM],GI50 (SF-539 CNS) [µM],TGI (SF-539 CNS) [µM],GI50 (U251 CNS) [µM],TGI (U251 CNS) [µM],GI50 (HCT-15 colon) [µM],TGI (HCT-15 colon) [µM],GI50 (CAKI-1 renal) [µM],TGI (CAKI-1 renal) [µM],GI50 (OVCAR-5 ovarian) [µM],TGI (OVCAR-5 ovarian) [µM],GI50 (SF-268 CNS) [µM],TGI (SF-268 CNS) [µM],GI50 (LOX IMVI melanoma) [µM],TGI (LOX IMVI melanoma) [µM],GI50 (BT-549 breast) [µM],TGI (BT-549 breast) [µM]
O=C(OCCBr)c1ccc(Cl)c([N+](=O)[O-])c1,18.8,34.4,2.51,5.14,19.6,36,1.71,3.2,16.3,32.4,7.78,23.1,18,34.5,5.44,10.3,10.2,26,18.1,33.1
CC12CC(OC(=O)[C@]1(C)O)[C@@H]([C@]1(O)CC[C@H]3[C@@H]4C[C@H]5O[C@]56[C@@H](O)C=CC(=O)[C@]6(C)[C@H]4CC[C@@]31C)C2 (some centres undefined),–,22.9,–,15.2,–,7.29,–,30,–,25.3,–,24.9,–,25.2,–,30.2,–,15.9,–,9.57
Nc1n[nH]c2cccc(C#Cc3cccc(C(=O)Nc4cc(CN5CCOCC5)cc(C(F)(F)F)c4)c3)c12,3.06,11.8,3.13,16.2,2.4,12,5.57,19.2,3.57,15.2,5.11,19.4,3.37,25.7,5.66,22.1,1.87,5.63,4.33,18.8
C/C=C/[C@@H]1OC(=O)C2=C[C@@H](O)[C@@H](/C=C/C)O[C@H]21,2.34,8.01,2.09,5.89,1.1,3.49,14.6,35.6,2.82,17.2,1.71,3.81,13.6,35,24.1,> 82.5,6.44,18.5,2.31,8.67
COc1cc(C2CC(c3ccc(N(C)C)cc3)=NN2C(C)=O)cc(OC)c1OC (centres undefined),3.57,> 100,0.909,> 39.5,1.35,5.34,1.65,> 100,1,> 100,0.801,> 100,> 27.8,> 100,3.69,> 100,2.28,> 100,2.53,> 100
COCCNc1cc(NC(=O)N2CCCc3cc(CN4CCN(C)CC4=O)c(C=O)nc32)ncc1C#N,23,> 50,> 50,> 50,> 50,> 50,> 50,> 50,33.1,> 50,> 50,> 50,> 50,> 50,> 50,> 50,> 50,> 50,> 50,> 50
CN(C(=O)c1ccncc1)c1ccccc1,–,> 100,–,> 100,–,> 100,–,> 100,–,> 100,–,> 100,–,> 100,–,> 100,–,> 100,–,> 100
Cn1ccnc1C(=O)/C=C/c1ccc(CC(=O)Nc2ccc(C(F)(F)F)cc2)cc1,2.95,5.96,3.96,9.02,2.21,4.45,1.89,3.93,1.4,> 16.7,3.54,9.53,2.45,5.21,3.03,7.88,2.18,4.37,2.56,5.33
Nc1cc(N)c2nc(-c3ccccc3)c(NCc3ccc(F)cc3)nc2c1,1.71,3.11,3.19,12.5,1.83,3.54,1.6,3.16,3.34,19.1,15.3,37.1,2.62,7.61,2.81,7.54,1.52,3.17,1.69,3.26
CS(=O)(=O)Nc1ccc(N=Cc2c(O)[nH]c3ccccc23)cc1,> 25,> 25,> 25,> 25,> 25,> 25,> 25,> 25,> 25,> 25,> 13.9,> 25,> 25,> 25,> 25,> 25,> 25,> 25,> 25,> 25
CN(C)CC1CCCCCC(CN(C)C)C1=O (centres undefined),1.07,2.64,1.35,2.78,4.16,15.7,11.1,25.6,1.24,4.26,1.49,3.12,8.29,22,7.72,23.4,7.68,25,3.46,15.9
CC(C)C[C@H](NC(=O)[C@@H](O)[C@H](N)Cc1ccc([N+](=O)[O-])cc1)C(=O)O,> 25,> 25,> 25,> 25,> 25,> 25,> 25,> 25,> 25,> 25,> 25,> 25,> 25,> 25,> 25,> 25,> 25,> 25,> 25,> 25
Cc1[nH]c2ccccc2c1CCNCc1ccc(/C=C/C(=O)NO)cc1,0.0183,0.0714,< 0.01,10.6,0.0249,2.11,< 0.0108,0.0333,0.0676,12.9,0.0193,0.0524,< 0.01,0.0911,0.0157,0.0605,0.0128,0.03,0.213,12.3
O=C(N/N=C/c1cc([N+](=O)[O-])ccc1O)c1cccc2ccccc12,3.08,44.7,5.74,> 100,3.8,24.2,2.46,64.1,2.55,> 100,1.31,4.67,6.2,> 100,4.12,> 100,2.02,53.4,1.63,23.7
CCCCN(CCCC)c1ccc(C(=NC(C)CCCN(CC)CC)c2ccc(N(C)C)cc2)cc1 (centres undefined),0.935,1.89,0.58,1.58,0.899,1.72,0.81,1.58,0.767,1.56,1.17,3.41,1.31,3.47,0.864,2.06,0.775,1.46,0.838,1.73
CCN1C(=O)N(CC)C2C1NN=c1s/c(=C\c3cc4ccccc4[nH]3)c(=O)n12 (centres undefined),< 0.0157,20.3,< 0.01,> 100,< 0.01,–,0.0383,17.4,0.0324,> 100,< 0.0169,11.6,< 0.0128,> 100,< 0.0229,20.4,< 0.01,> 100,0.0178,16
CC(C)N1C(NNC(=O)c2cnccn2)=NS(=O)(=O)c2ccccc21,> 100,> 100,> 100,> 100,> 100,> 100,> 100,> 100,> 100,> 100,> 100,> 100,> 100,> 100,> 100,> 100,> 100,> 100,> 100,> 100
CCCCNC(=O)NS(=O)(=O)c1ccc(N2N=C(c3cc(C)ccc3C)CC2c2cc(OC)c(OC)c(OC)c2)cc1 (centres undefined),3.69,12.5,2.42,5.04,1.9,3.88,2.11,5.62,2.81,11.1,3.07,12.7,3.39,11.9,3.16,11.7,2.24,4.75,2.73,9.28
FC(F)(F)c1ccc(-c2cnc(Cl)nc2NCc2cc(C(F)(F)F)cc(C(F)(F)F)c2)cc1,3.28,> 100,3.26,> 100,3.78,> 100,2.81,> 100,3.48,> 100,2.1,7.52,4.52,> 100,3.86,> 100,2.74,> 100,5.59,> 100
